Results as given in patent publication US20240390301A1, “COMBINATIONS OF PERIPHERAL 5-HT2A RECEPTOR ANTAGONISTS AND CENTRAL 5-HT2A RECEPTOR AGONISTS” (priority 2021, published 2024).
Read-outs that look alike come from different tables or passages of the source.

Assays:
[1] = in vitro; conditions: for fraction unbound at 4 h, 5 μM: pH 7.4
Experimental: Method 1. Aliquots of 50 μL loading matrix containing test compound (2 μM final incubation concentration) or control compound in triplicate were transferred to a Sample Collection Plate. The samples were matched with opposite blank buffer to obtain a final volume of 100 μL, with a volume ratio of matrix: Dialysis Buffer of 1:1 (v:v) in each well. Stop solution (200 ng/ml tolbutamide and 200 ng/mL labetalol in ACN) was added to these TO samples of test compound and control compound. The plate was sealed and shaken at 800 rpm for 10 min. An aliquot of 100 μL of the loading matrix containing test compound or control compound was transferred to the donor side of each dialysis well in triplicate and 100 μL of the Dialysis Buffer was loaded to the receiver side of the well. Then the plate was rotated at approximately 100 rpm in a humidified incubator with 5% CO2 at 37±1° C. for 4 hours. At the end of the dialysis, aliquots of 50 μL samples from the buffer side and matrix side of the dialysis device were taken into new 96-well plates (Sample Collection Plates). An equal volume of opposite blank matrix (buffer or matrix) in each sample was added to reach a final volume of 100 μL, with volume ratio of matrix: Dialysis Buffer of 1:1 (v:v) in each well. All samples were further processed by protein precipitation before LC-MS/MS analysis.
Method 2. Aliquots (200 μL) of positive controls and test compounds at 5 μM (triplicates) were separately added to the plasma chamber and […] of phosphate buffered saline (pH 7.4) was added to the buffer chamber of the inserts. After sealing the rapid equilibrium dialysis (RED) device with an adhesive film, dialysis was performed in an incubator at 37° C. with shaking at 100 RPM for 4 hours. Aliquots (50 μL) of warfarin and test compounds were added to four 0.5 mL micro fuse tubes. Two aliquots were frozen immediately (0-minute sample). The other two aliquots were incubated at 37° C. for 4 hours along with the RED device. Following dialysis, an aliquot of 50 μL was removed from each well (both plasma and buffer side) and diluted with an equal volume of opposite matrix (dialyzed with the other matrix) to nullify the matrix effect. Similarly, 50 μL of buffer was added to recovery and stability samples. An aliquot of 100 μL was used for LC-MS/MS analysis following protein precipitation with ACN containing internal standard.

[2] = tested on: DOPR-induced elevation of MABP; experiment: Effect on DOPR-induced blood pressure (MABP) elevation in anesthetized rats; format: in vivo, Sprague-Dawley rats
Experimental: Key peripheral 5-HT2A receptor antagonists were tested for their ability to block the increases in blood pressure (BP) induced by a maximally effective dose (in terms of HTR response) of 2,5-dimethoxy-4-propylamphetamine (DOPR) in anesthetized rats, with the key results summarized in FIGS. 5-9. FIG. 5 depicts in a bar graph the effect of xylamidine pre-treatment on DOPR-induced elevation of MABP in the rat. The indicated doses of xylamidine or vehicle were administered SC, followed 10 minutes later by DOPR (0.32 mg/kg, SC), and mean percent change in MABP relative to the baseline recording for each group was calculated for the 20 minutes immediately after DOPR administration (10-30 min after administration of xylamidine). *p<0.05, **p<0.01 vs. vehicle using Dunnett's multiple comparison test. FIG. 6 depicts in a bar graph the effect of BW501C67 pre-treatment on DOPR-induced elevation of MABP in the rat. The indicated doses of BW501C67 or vehicle were administered SC, followed 10 minutes later by DOPR (0.32mg/kg, SC), and mean percent change in MABP relative to the baseline recording for each group was calculated for the 20 minutes immediately after DOPR administration (10-30 min after administration of BW501C67). *p<0.05 vs. vehicle using Dunnett's multiple comparison test. FIG. 7 depicts in a bar graph the effect of xylamidine pre-treatment on DOPR-induced elevation of MABP in the rat. The indicated doses of xylamidine or vehicle were administered SC. followed 10 minutes later by DOPR (0.32 mg/kg, SC), and mean percent change in MABP relative to the baseline recording for each group was calculated for the period 45-55 minutes after DOPR administration (55-65 min after administration of xylamidine). *p<0.05, ***p<0.001 vs. vehicle using Dunnett's multiple comparison test. FIG. 8 depicts in a bar graph the effect of BW501C67pre-treatment on DOPR-induced elevation of MABP in the rat. The indicated doses of BW501C67or vehicle were administered SC, followed 10 minutes later by DOPR (0.32 mg/kg, SC), and mean percent change in MABP relative to the baseline recording for each group was calculated for the period 45-55 minutes after DOPR administration (55-65 min after administration of BW501C67). *p<0.05, **p<0.01, ***p<0.001 vs. vehicle using Dunnett's multiple comparison test. FIG. 9 depicts in a bar graph the effect of Compound 14a pre-treatment on DOPR-induced elevation of MABP in the rat. The indicated doses of Compound 14a or vehicle were administered SC, followed 10 minutes later by DOPR (0.32 mg/kg, SC), and mean percent change in MABP relative to the baseline recording for each group was calculated for the 20 minutes immediately after DOPR administration (10-30 min after administration of Compound 14a).
Animals. Adult male Sprague-Dawley rats aged 8 weeks (body weight ˜270 g) were used in these experiments. Animals were pair housed under controlled temperatures and 12-hour light/dark cycles (lights on between 07:00-19:00 h), with ad libitum food and water. The protocol was approved by the Eurofins Advinus Institutional Animal Care and Use Committee. […]
Drugs and Drug administration. […] The 5-HT2A receptor agonist DOPR was then administered at 1 dose (0.32 mg/kg. SC, in saline, calculated based on the free base) to all animals 10 min after pretreatment with the test peripheral antagonist or vehicle (saline). […]

[3] = target: T1, 5-HT2A receptor (Homo sapiens, UniProt P28223); experiment: 5-HT2A radioligand binding with [3H]ketanserin
T1 construct: WuXi AppTec (Hong Kong) Limited (contract laboratory that ran the assay)
T1 sequence (P28223 whole entry): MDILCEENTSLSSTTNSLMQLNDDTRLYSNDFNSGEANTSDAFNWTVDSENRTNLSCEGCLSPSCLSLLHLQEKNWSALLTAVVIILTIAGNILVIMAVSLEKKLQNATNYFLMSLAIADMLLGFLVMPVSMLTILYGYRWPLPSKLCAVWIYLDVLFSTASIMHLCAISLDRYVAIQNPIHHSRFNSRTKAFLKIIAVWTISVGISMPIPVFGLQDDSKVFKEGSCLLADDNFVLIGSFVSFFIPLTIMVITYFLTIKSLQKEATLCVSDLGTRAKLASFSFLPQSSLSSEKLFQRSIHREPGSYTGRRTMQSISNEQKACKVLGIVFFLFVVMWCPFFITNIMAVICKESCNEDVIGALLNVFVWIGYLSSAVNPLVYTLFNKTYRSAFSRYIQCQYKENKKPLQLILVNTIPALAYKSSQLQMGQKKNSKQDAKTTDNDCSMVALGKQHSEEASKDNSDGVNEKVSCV
Experimental: The binding affinities of key peripheral 5-HT2A receptor antagonists, as well as reference 5-HT2A agonists, at the ketanserin binding site of the 5-HT2A receptor and the mesulergine binding site of the 5-HT2C receptor were determined in radioligand binding experiments.
Method. Affinity of the test compounds for the 5-HT2A and 5-HT2C receptors was determined in radioligand binding experiments with [^3H] ketanserin and [^3H] mesulergine, respectively, by WuXi AppTec (Hong Kong) Limited, using methods adapted from the literature and under conditions described in Table 1.

[4] = 10-30 min after antagonist administration (0.01 to 10 mg/kg SC), DOPR 0.32 mg/kg SC
[5] = 55-65 min after antagonist administration (45-55 min after DOPR 0.32 mg/kg SC)
[6] = HEK293 stable cell line, 1 nM [3H]ketanserin, 1 h, 25° C., read-out: 5-HT2A Ki (nM) ([3H]ketanserin)

SMILES	fraction unbound at 4 h, 2 μM ([1]; rat, plasma)	Attenuation of DOPR-induced elevation of MABP [2, 4]	Attenuation of DOPR-induced elevation of MABP [2, 5]	Ki [3]	fraction unbound at 4 h, 5 μM ([1]; rat, plasma)	Ki [3, 6]	Mean % bound (rat plasma protein binding) ([1]; Method 2: RED, 5 μM, 4 hours, 37° C.)
CC(CNC(=N)CNc1ccccc1)Oc1cccc(Cl)c1.O=CO (stereo not shown) [BW501C67, N-(2-(3-chlorophenoxy)propyl)-2-(phenylamino)acetimidamide formate]	0.107	significantly attenuated	showing activity at lower doses	0.42 nM	–	–	–
CC(C)COc1ccc(CNC(=O)N(Cc2ccc(F)cc2)C2CCN(C(=O)CC[C@H](N)C(=O)O)CC2)cc1 [Compound 14a, (S)-2-amino-5-(4-(1-(4-fluorobenzyl)-3-(4-isobutoxybenzyl)ureido)piperidin-1-yl)-5-oxopentanoic acid]	–	failed to significantly attenuate	–	–	0.06	3.83 nM	–
COc1cccc(CCc2ccccc2OCC(CN(C)C)OC(=O)CCC(=O)O)c1 (stereo not shown) [sarpogrelate]	–	–	–	–	0.002	–	–
COc1cccc(C(=O)Nc2ccc(OCCN3CCOCC3)c(-c3ccnn3C)c2)c1 [temanogrel]	–	–	–	–	0.091	–	–
COc1cccc(OC(C)CNC(=N)Cc2cccc(C)c2)c1.O=C(O)C(F)(F)F (stereo not shown) [xylamidine, N-(2-(3-methoxyphenoxy)propyl)-2-(m-tolyl) acetimidamide trifluoroacetate]	–	significantly attenuated	showing activity at lower doses	–	–	0.55 nM	65.6%
